Test results from paper PMC9403976, “Elucidating the path to Plasmodium prolyl-tRNA synthetase inhibitors that overcome halofuginone resistance” (Nature Communications, 2022).
Values joined by “and” are separate entries in the source; they are usually repeats but may differ in a detail not shown here. Equal entries are not always repeated. Where two headings read alike, the source gives them in different places.

Columns and labels:
HsProRS = HsProRS (Homo sapiens, UniProt P07814); assay: TR-FRET ligand displacement assay with tracer MAT379 (CoraFluor-1-Halo and anti-His6 antibody formats); assay type: binding; set-up: made in house; host or cells: E. coli SoluBL-21; conditions: for TR-FRET dose-response, normalized signal (SI Fig 11): individual replicates
PfcProRS = target: T1, PfcProRS (Plasmodium falciparum, UniProt Q8I5R7); assay type: binding; conditions: single replicates
T1 construct: made in house; host or cells: E. coli SoluBL-21
T1 sequence (Q8I5R7 249-746): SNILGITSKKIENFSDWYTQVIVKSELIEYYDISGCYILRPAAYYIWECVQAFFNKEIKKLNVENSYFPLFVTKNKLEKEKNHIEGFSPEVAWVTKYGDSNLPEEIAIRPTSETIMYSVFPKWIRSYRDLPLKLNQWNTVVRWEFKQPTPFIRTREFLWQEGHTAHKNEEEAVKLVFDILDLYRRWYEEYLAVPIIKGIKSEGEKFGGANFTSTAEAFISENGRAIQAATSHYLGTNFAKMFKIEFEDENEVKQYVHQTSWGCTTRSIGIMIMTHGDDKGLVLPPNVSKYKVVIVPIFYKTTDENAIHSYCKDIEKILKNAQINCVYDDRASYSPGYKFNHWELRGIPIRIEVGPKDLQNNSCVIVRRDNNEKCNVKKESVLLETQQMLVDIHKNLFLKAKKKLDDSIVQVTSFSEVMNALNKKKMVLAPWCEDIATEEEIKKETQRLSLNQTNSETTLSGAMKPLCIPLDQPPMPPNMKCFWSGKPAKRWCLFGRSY

Sequence of HsProRS (P07814 996-1512): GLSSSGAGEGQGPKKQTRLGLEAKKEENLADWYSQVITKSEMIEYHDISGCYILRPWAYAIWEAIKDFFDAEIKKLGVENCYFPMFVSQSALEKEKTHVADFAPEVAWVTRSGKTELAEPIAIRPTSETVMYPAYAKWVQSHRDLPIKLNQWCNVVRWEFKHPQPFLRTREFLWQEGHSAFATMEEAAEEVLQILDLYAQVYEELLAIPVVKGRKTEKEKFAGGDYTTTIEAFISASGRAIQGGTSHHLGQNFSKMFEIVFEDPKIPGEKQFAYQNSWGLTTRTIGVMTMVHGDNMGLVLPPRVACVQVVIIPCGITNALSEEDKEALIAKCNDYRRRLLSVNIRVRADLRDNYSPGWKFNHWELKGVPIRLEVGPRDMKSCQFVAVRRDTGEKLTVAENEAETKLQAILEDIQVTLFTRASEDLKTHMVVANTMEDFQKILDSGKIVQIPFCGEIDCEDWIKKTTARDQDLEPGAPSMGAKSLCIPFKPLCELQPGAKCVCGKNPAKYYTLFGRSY

With `NC1CCN(C(=O)Nc2nccnc2C(=O)NC2Cc3ccccc3C2)CC1` [compound 8] the IC50 (HsProRS) was greater than 10 µM, the “HsProRS % signal at 10 μM, + 100 μM proline” value (HsProRS; + 100 μM proline, 10 μM) was 64.1% and the “normalized TR-FRET ligand displacement signal, dose-response replicates (SI Fig 6)” value (HsProRS; Log[inhibitor] (M) -5.000) was 7.72E-01 and 8.67E-01 and 9.20E-01. The “TR-FRET dose-response, normalized signal (SI Fig 11)” value (HsProRS; Log[inhibitor] (M) -5.000) was 7.80E-01 and 8.21E-01 and 8.27E-01, the “normalized TR-FRET ligand displacement signal, dose-response replicates (SI Fig 6)” value (HsProRS; Log[inhibitor] (M) -5.301) was 9.51E-01 and 8.63E-01 and 8.95E-01 and the “TR-FRET dose-response, normalized signal (SI Fig 11)” value (HsProRS; Log[inhibitor] (M) -5.301) was 9.22E-01 and 8.53E-01 and 9.03E-01. For the same compound, the “normalized TR-FRET ligand displacement signal, dose-response replicates (SI Fig 6)” value (HsProRS; Log[inhibitor] (M) -5.601) was 9.39E-01 and 9.19E-01 and 9.88E-01, the “TR-FRET dose-response, normalized signal (SI Fig 11)” value (HsProRS; Log[inhibitor] (M) -5.601) was 8.79E-01 and 9.90E-01 and 8.75E-01 and the “normalized TR-FRET ligand displacement signal, dose-response replicates (SI Fig 6)” value (HsProRS; Log[inhibitor] (M) -5.904) was 9.40E-01 and 9.19E-01 and 1.05E+00. For the same compound, the “TR-FRET dose-response, normalized signal (SI Fig 11)” value (HsProRS; Log[inhibitor] (M) -5.904) was 9.88E-01 and 9.41E-01 and 9.72E-01, the “normalized TR-FRET ligand displacement signal, dose-response replicates (SI Fig 6)” value (HsProRS; Log[inhibitor] (M) -6.208) was 8.89E-01 and 1.04E+00 and 1.05E+00 and the “TR-FRET dose-response, normalized signal (SI Fig 11)” value (HsProRS; Log[inhibitor] (M) -6.208) was 9.38E-01 (2×) and 9.73E-01. For the same compound, the “normalized TR-FRET ligand displacement signal, dose-response replicates (SI Fig 6)” value (HsProRS; Log[inhibitor] (M) -6.509) was 1.02E+00 and 9.90E-01 and 9.84E-01, the “TR-FRET dose-response, normalized signal (SI Fig 11)” value (HsProRS; Log[inhibitor] (M) -6.509) was 9.67E-01 and 9.58E-01 and 9.39E-01 and the “normalized TR-FRET ligand displacement signal, dose-response replicates (SI Fig 6)” value (HsProRS; Log[inhibitor] (M) -6.796) was 1.02E+00 and 1.08E+00 and 1.11E+00. For the same compound, the “TR-FRET dose-response, normalized signal (SI Fig 11)” value (HsProRS; Log[inhibitor] (M) -6.796) was 9.44E-01 and 9.26E-01 and 9.45E-01, the “normalized TR-FRET ligand displacement signal, dose-response replicates (SI Fig 6)” value (HsProRS; Log[inhibitor] (M) -7.108) was 1.06E+00 and 1.03E+00 and 1.02E+00 and the “TR-FRET dose-response, normalized signal (SI Fig 11)” value (HsProRS; Log[inhibitor] (M) -7.108) was 8.82E-01 and 8.87E-01 and 8.97E-01. For the same compound, the “normalized TR-FRET ligand displacement signal, dose-response replicates (SI Fig 6)” value (HsProRS; Log[inhibitor] (M) -7.409) was 1.03E+00 (2×) and 9.94E-01, the “TR-FRET dose-response, normalized signal (SI Fig 11)” value (HsProRS; Log[inhibitor] (M) -7.409) was 8.83E-01 and 9.01E-01 and 8.97E-01 and the “normalized TR-FRET ligand displacement signal, dose-response replicates (SI Fig 6)” value (HsProRS; Log[inhibitor] (M) -7.710) was 9.60E-01 and 1.05E+00 and 1.02E+00. For the same compound, the “TR-FRET dose-response, normalized signal (SI Fig 11)” value (HsProRS; Log[inhibitor] (M) -7.710) was 9.46E-01 and 8.63E-01 and 9.47E-01, the “normalized TR-FRET ligand displacement signal, dose-response replicates (SI Fig 6)” value (HsProRS; Log[inhibitor] (M) -8.000) was 8.80E-01 and 1.08E+00 and 9.66E-01 and the “TR-FRET dose-response, normalized signal (SI Fig 11)” value (HsProRS; Log[inhibitor] (M) -8.000) was 9.68E-01 and 9.54E-01 and 9.46E-01. The “normalized TR-FRET ligand displacement signal, dose-response replicates (SI Fig 6)” value (HsProRS; Log[inhibitor] (M) -8.301) was 9.78E-01 and 9.63E-01 and 8.97E-01, the “TR-FRET dose-response, normalized signal (SI Fig 11)” value (HsProRS; Log[inhibitor] (M) -8.301) was 9.20E-01 and 9.17E-01 and 9.26E-01 and the “normalized TR-FRET ligand displacement signal, dose-response replicates (SI Fig 6)” value (HsProRS; Log[inhibitor] (M) -8.602) was 9.99E-01 and 9.46E-01 and 8.78E-01. For the same compound, the “TR-FRET dose-response, normalized signal (SI Fig 11)” value (HsProRS; Log[inhibitor] (M) -8.602) was 9.38E-01 and 9.59E-01 and 9.18E-01, the “normalized TR-FRET ligand displacement signal, dose-response replicates (SI Fig 6)” value (HsProRS; Log[inhibitor] (M) -9.000) was 8.55E-01 and 9.99E-01 and 1.05E+00 and the “TR-FRET dose-response, normalized signal (SI Fig 11)” value (HsProRS; Log[inhibitor] (M) -9.000) was 9.56E-01 and 9.64E-01 and 9.58E-01. For the same compound, the “normalized TR-FRET ligand displacement signal, dose-response replicates (SI Fig 6)” value (HsProRS; Log[inhibitor] (M) -9.301) was 1.04E+00 and 8.74E-01 and 1.01E+00, the “TR-FRET dose-response, normalized signal (SI Fig 11)” value (HsProRS; Log[inhibitor] (M) -9.301) was 9.54E-01 and 1.00E+00 (2×) and the “HsProRS % signal at 10 μM” value (HsProRS; no added proline/ATP (-), 10 μM) was 81.0%. For the same compound, the IC50 (HsProRS; read-out: HsProRS IC50 + 100 μM proline, + 100 μM proline) was greater than 10 µM, the “dose-response signal (normalized), SI Fig 8” value (PfcProRS; Log[inhibitor] (M) -5.000) was 9.61E-01 and 8.92E-01 and 8.44E-01 and the “dose-response signal (normalized), SI Fig 8” value (PfcProRS; Log[inhibitor] (M) -5.301) was 8.74E-01 and 9.88E-01 and 9.73E-01. The “dose-response signal (normalized), SI Fig 8” value (PfcProRS; Log[inhibitor] (M) -5.601) was 9.98E-01 and 1.02E+00 and 1.04E+00, the “dose-response signal (normalized), SI Fig 8” value (PfcProRS; Log[inhibitor] (M) -5.904) was 1.08E+00 and 1.04E+00 (2×) and the “dose-response signal (normalized), SI Fig 8” value (PfcProRS; Log[inhibitor] (M) -6.208) was 1.22E+00 and 1.03E+00 and 1.05E+00. The “dose-response signal (normalized), SI Fig 8” value (PfcProRS; Log[inhibitor] (M) -6.509) was 1.14E+00 and 1.03E+00 and 1.04E+00, the “dose-response signal (normalized), SI Fig 8” value (PfcProRS; Log[inhibitor] (M) -6.796) was 1.01E+00 and 1.02E+00 and 1.08E+00 and the “dose-response signal (normalized), SI Fig 8” value (PfcProRS; Log[inhibitor] (M) -7.108) was 9.50E-01 and 9.64E-01 and 1.00E+00. The “dose-response signal (normalized), SI Fig 8” value (PfcProRS; Log[inhibitor] (M) -7.409) was 1.03E+00 and 1.01E+00 and 1.12E+00, the “dose-response signal (normalized), SI Fig 8” value (PfcProRS; Log[inhibitor] (M) -7.710) was 1.12E+00 and 1.00E+00 and 9.44E-01 and the “dose-response signal (normalized), SI Fig 8” value (PfcProRS; Log[inhibitor] (M) -8.000) was 1.00E+00 and 9.85E-01 and 1.03E+00. For the same compound, the “dose-response signal (normalized), SI Fig 8” value (PfcProRS; Log[inhibitor] (M) -8.301) was 1.00E+00 and 9.83E-01 and 1.01E+00, the “dose-response signal (normalized), SI Fig 8” value (PfcProRS; Log[inhibitor] (M) -8.602) was 1.04E+00 (2×) and 1.03E+00 and the “dose-response signal (normalized), SI Fig 8” value (PfcProRS; Log[inhibitor] (M) -9.000) was 9.59E-01 and 1.02E+00 and 1.11E+00. The “dose-response signal (normalized), SI Fig 8” value (PfcProRS; Log[inhibitor] (M) -9.301) was 9.77E-01 and 1.08E+00 and 1.13E+00.
